# Experimental data published in PubChem BioAssay (NCI).
#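 Following 48 hours of exposure in 96-well plates, responses at five concentrations were used to interpolate endpoints linearly. TGI: concentration producing complete growth inhibition.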
# Tests used:
# Assay in all cases: NCI tumour cell line growth inhibition, 48 h
# OVCAR-3 ovarian = system: OVCAR-3 ovarian
# BT-549 breast = system: BT-549 breast
# OVCAR-4 ovarian = system: OVCAR-4 ovarian
# NCI-H23 lung = system: NCI-H23 lung
# HOP-92 NSCLC = system: HOP-92 NSCLC
# HCC-2998 colon = system: HCC-2998 colon
# SK-MEL-28 melanoma = system: SK-MEL-28 melanoma
# DU-145 prostate = system: DU-145 prostate
# NCI-H522 lung = system: NCI-H522 lung
# UACC-257 melanoma = system: UACC-257 melanoma
# SK-OV-3 ovarian = system: SK-OV-3 ovarian
# LOX IMVI melanoma = system: LOX IMVI melanoma
# SNB-75 CNS = system: SNB-75 CNS
# MALME-3M melanoma = system: MALME-3M melanoma
# MDA-N = system: MDA-N
# SW-620 colon = system: SW-620 colon
Structure (SMILES),TGI (OVCAR-3 ovarian),TGI (BT-549 breast),TGI (OVCAR-4 ovarian),TGI (NCI-H23 lung),TGI (HOP-92 NSCLC),TGI (HCC-2998 colon),TGI (SK-MEL-28 melanoma),TGI (DU-145 prostate),TGI (NCI-H522 lung),TGI (UACC-257 melanoma),TGI (SK-OV-3 ovarian),TGI (LOX IMVI melanoma),TGI (SNB-75 CNS),TGI (MALME-3M melanoma),TGI (MDA-N),TGI (SW-620 colon)
COc1ccc(/C=C2\N=C(N3CCOCC3)NC2=O)cc1,> 100 µM,> 100 µM,> 100 µM,> 100 µM,> 100 µM,> 100 µM,> 100 µM,> 100 µM,> 100 µM,> 100 µM,> 100 µM,> 100 µM,> 100 µM,> 100 µM,> 100 µM,> 100 µM
C=CC(C)(C)c1c(OC)oc2ccc(OC)c(C)c2c1=O,> 100 µM,> 100 µM,–,> 100 µM,–,> 100 µM,> 100 µM,> 100 µM,> 100 µM,> 100 µM,> 100 µM,> 100 µM,> 100 µM,> 100 µM,> 100 µM,> 100 µM
O=C(O)CSc1nc2ccccc2[nH]1,> 100 µM,> 100 µM,> 100 µM,> 100 µM,> 100 µM,> 100 µM,> 100 µM,> 100 µM,> 100 µM,> 100 µM,–,> 100 µM,> 100 µM,> 100 µM,> 100 µM,> 100 µM
CC(C)(Cl)C(Br)CCC(=CCBr)CBr (mixture of isomers),6.27 µM,7.5 µM,5.06 µM,9.07 µM,5.1 µM,14 µM,10.8 µM,21.3 µM,3.19 µM,14.2 µM,29 µM,–,7.31 µM,4.74 µM,6.13 µM,5.53 µM
O=c1[nH]ncc2[nH]c(-c3ccccc3)cc12,> 100 µM,> 100 µM,> 100 µM,> 100 µM,> 100 µM,> 100 µM,–,> 100 µM,–,> 100 µM,> 100 µM,> 100 µM,77 µM,> 100 µM,> 100 µM,> 100 µM
N=C(N)SCCSC(=N)N,> 100 µM,> 100 µM,> 100 µM,> 100 µM,> 100 µM,> 100 µM,> 100 µM,> 100 µM,> 100 µM,> 100 µM,> 100 µM,> 100 µM,> 100 µM,> 100 µM,> 100 µM,> 100 µM
CCc1nc2c(n1CC)C(=O)c1ccccc1C2=O,53.9 µM,> 100 µM,> 100 µM,> 100 µM,> 100 µM,> 100 µM,> 100 µM,> 100 µM,96 µM,51.4 µM,–,–,> 100 µM,34.3 µM,> 10 µM,> 100 µM
Cc1ccc(C)n1-n1c(Cc2ccc(Cl)cc2)n[nH]c1=O,> 100 µM,> 100 µM,> 100 µM,–,–,–,> 100 µM,> 100 µM,> 100 µM,> 100 µM,> 100 µM,> 100 µM,> 100 µM,> 100 µM,> 100 µM,> 100 µM
CC(=O)OC12c3ccccc3C(c3ccccc31)C1C(=O)N(c3ccccc3O)C(=O)C12 (stereo unspecified),> 100 µM,> 100 µM,> 100 µM,> 100 µM,–,> 100 µM,> 100 µM,> 100 µM,–,> 100 µM,> 100 µM,> 100 µM,> 100 µM,> 100 µM,> 100 µM,> 100 µM
c1ccc(C2C3=C(c4ccccc4CC3)N3c4cc5nc6ccccc6nc5cc4NC34CCCCC24)cc1 (stereo unspecified),> 10 µM,> 10 µM,> 10 µM,> 10 µM,> 10 µM,> 10 µM,> 10 µM,> 10 µM,–,> 10 µM,> 10 µM,> 10 µM,> 10 µM,> 10 µM,> 10 µM,> 10 µM
O=c1cc(CN2CCCCC2)[nH]c2c1ccc1nc(CN3CCCCC3)cc(=O)n12,> 100 µM,> 100 µM,> 100 µM,> 100 µM,> 100 µM,> 100 µM,> 100 µM,> 100 µM,–,> 100 µM,> 100 µM,> 100 µM,> 100 µM,–,> 100 µM,> 100 µM
C=CC[C@H](O)[C@@](NC(=O)OCc1ccccc1)(Sc1ccc(C)cc1)C(F)(F)F,48.5 µM,29.4 µM,> 100 µM,70.2 µM,> 100 µM,> 100 µM,> 100 µM,> 100 µM,32.4 µM,74.1 µM,–,16.9 µM,–,> 100 µM,46.6 µM,> 100 µM
COc1cc(S(=O)(=O)Nc2ccc(-c3csc(/N=C\c4ccccc4O)n3)cc2)ccc1Cl,> 100 µM,> 100 µM,> 100 µM,> 100 µM,> 100 µM,–,> 100 µM,> 100 µM,> 100 µM,–,> 100 µM,> 100 µM,> 100 µM,> 100 µM,> 100 µM,> 100 µM
CC(C)(C)OC(=O)CCC1NC(=O)[C@@H]2Cc3c([nH]c4ccccc34)C(c3ccccc3)N2C1=O (stereo partly specified),48.5 µM,64.4 µM,> 100 µM,79.6 µM,67.7 µM,–,> 100 µM,> 100 µM,54.1 µM,50.1 µM,> 100 µM,36.3 µM,–,43.4 µM,45.7 µM,> 100 µM
Cc1cc(N(C)C)ccc1N=Nc1ccc2ncccc2c1,–,> 100 µM,–,> 100 µM,> 100 µM,–,–,> 100 µM,62.8 µM,> 100 µM,> 100 µM,–,> 100 µM,> 100 µM,> 100 µM,> 100 µM
Nc1ccc(-c2nnc(-c3c(Cl)c(Cl)c(Cl)c(Cl)c3-c3nc4ccc(C(=O)c5ccccc5)cc4[nH]3)o2)cc1,62.6 µM,> 100 µM,> 100 µM,> 100 µM,> 100 µM,–,> 100 µM,90.5 µM,47.9 µM,> 100 µM,84.2 µM,> 100 µM,69.2 µM,> 100 µM,19 µM,> 100 µM

Structure (SMILES),TGI (OVCAR-3 ovarian),TGI (BT-549 breast),TGI (OVCAR-4 ovarian),TGI (NCI-H23 lung),TGI (HOP-92 NSCLC),TGI (HCC-2998 colon),TGI (SK-MEL-28 melanoma),TGI (DU-145 prostate),TGI (NCI-H522 lung),TGI (UACC-257 melanoma),TGI (SK-OV-3 ovarian),TGI (LOX IMVI melanoma),TGI (SNB-75 CNS),TGI (MALME-3M melanoma),TGI (MDA-N),TGI (SW-620 colon)
Clc1ccc(-c2cn3c(nc4ccccc43)c(/C=C/c3cccs3)n2)cc1,> 100 µM,> 100 µM,> 100 µM,> 100 µM,> 100 µM,> 100 µM,> 100 µM,> 100 µM,–,> 100 µM,> 100 µM,> 100 µM,> 100 µM,> 100 µM,> 100 µM,> 100 µM
CCOC(=O)c1ccc(N(C)Cc2cnc3nc(N)nc(N)c3n2)cc1,34.9 µM,> 100 µM,–,> 100 µM,–,–,83.8 µM,> 100 µM,–,> 100 µM,51.4 µM,> 100 µM,54 µM,51.1 µM,> 100 µM,> 100 µM
COc1cc(CN(C)N2C(=O)c3cccc4cc([N+](=O)[O-])cc(c34)C2=O)cc(OC)c1OC,> 100 µM,> 100 µM,> 100 µM,> 100 µM,> 100 µM,–,> 100 µM,> 100 µM,> 100 µM,–,> 100 µM,–,60.1 µM,> 100 µM,> 100 µM,–
COc1cc(C2SC(N)=Nc3c2c(C)nn3C(=O)Cc2ccccc2)cc(OC)c1OC (stereo unspecified),–,> 100 µM,–,> 100 µM,–,> 100 µM,> 100 µM,> 100 µM,> 100 µM,> 100 µM,> 100 µM,> 100 µM,> 100 µM,–,> 100 µM,> 100 µM
NC(=S)Nc1c(S(N)(=O)=O)cc(S(N)(=O)=O)c(Cl)c1Cl,> 100 µM,> 100 µM,> 100 µM,> 100 µM,> 100 µM,–,> 100 µM,> 100 µM,> 100 µM,> 100 µM,> 100 µM,> 100 µM,> 100 µM,> 100 µM,> 100 µM,> 100 µM
CN(NC(=O)c1ccc(Cl)cc1)C1=NCCCCN1,> 100 µM,> 100 µM,> 100 µM,> 100 µM,> 100 µM,> 100 µM,> 100 µM,–,> 100 µM,> 100 µM,> 100 µM,> 100 µM,> 100 µM,> 100 µM,> 100 µM,> 100 µM
CC(=O)OCC(OC(C)=O)C(OC(C)=O)C(/C=N\Nc1nc2ccccc2c(=O)[nH]1)OC(C)=O (stereo unspecified),> 100 µM,> 100 µM,–,> 100 µM,> 100 µM,–,> 100 µM,> 100 µM,–,> 100 µM,> 100 µM,> 100 µM,> 100 µM,–,> 100 µM,> 100 µM
CCOC(=O)C(=NN(C)c1ncccc1N)C(=O)OCC,> 100 µM,> 100 µM,> 100 µM,> 100 µM,46.2 µM,–,> 100 µM,> 100 µM,–,58.7 µM,> 100 µM,38.1 µM,> 100 µM,59.7 µM,> 100 µM,70.3 µM
CNC(=S)N/N=C(\C)c1cc(OC)c(OC)cc1O,> 100 µM,> 100 µM,–,–,–,> 100 µM,> 100 µM,> 100 µM,–,> 100 µM,> 100 µM,–,> 100 µM,> 100 µM,> 100 µM,> 100 µM
C/C(CC(O)(C(F)(F)Cl)C(F)(F)Cl)=N\Nc1ccccc1,48.3 µM,> 100 µM,> 100 µM,50 µM,69.6 µM,–,> 100 µM,> 100 µM,> 100 µM,> 100 µM,> 100 µM,> 100 µM,78.9 µM,> 100 µM,> 100 µM,> 100 µM
Cc1cc(C)c2c(=O)cc(-c3ccccc3)[nH]c2c1,25.6 µM,54.2 µM,31 µM,16.5 µM,59.5 µM,–,35.3 µM,98.4 µM,7.29 µM,> 100 µM,15.7 µM,41.2 µM,19.3 µM,> 80.4 µM,3.17 µM,> 100 µM
CC(=O)OC12c3ccccc3C(c3ccccc31)C1C(=O)N(Nc3ccccc3)C(=O)C12 (stereo unspecified),> 100 µM,> 100 µM,> 100 µM,> 100 µM,–,> 100 µM,> 100 µM,> 100 µM,–,> 100 µM,> 100 µM,> 100 µM,> 100 µM,> 100 µM,> 100 µM,> 100 µM
CCOC(=O)C(=O)N=Nc1c(O)[nH]c2ccccc12,–,> 100 µM,> 100 µM,> 100 µM,–,> 100 µM,> 100 µM,> 100 µM,> 100 µM,> 100 µM,> 100 µM,> 100 µM,> 100 µM,> 100 µM,> 100 µM,> 100 µM
CC(=O)OCc1cc(OC(C)=O)c2cc3c(OC(C)=O)cccc3c(OC(C)=O)c2c1,33.6 µM,49.6 µM,59.3 µM,56.8 µM,52.2 µM,31.6 µM,51.7 µM,43.5 µM,–,49.1 µM,41.1 µM,–,45.2 µM,4.08 µM,40.9 µM,44.2 µM
Cc1ccc(NC(=O)C23CC4CC(CC(C4)C2)C3)c(C(=O)NNC(=O)c2ccc(Cl)cc2)c1,66.9 µM,> 100 µM,65.8 µM,38.8 µM,33.5 µM,30.2 µM,–,> 100 µM,30.4 µM,9.53 µM,39 µM,35.3 µM,–,59.4 µM,52.1 µM,> 100 µM
CN1CCC2(CC1)C(=O)N(NC(N)=O)C(=O)C2c1ccccc1 (stereo unspecified),> 100 µM,> 100 µM,> 100 µM,> 100 µM,–,> 100 µM,> 100 µM,> 100 µM,–,> 100 µM,> 100 µM,> 100 µM,> 100 µM,> 100 µM,> 100 µM,> 100 µM
